Among the data in patent US20250163104A1, “MACROCYCLIC IMMUNOMODULATORS” (priority 2021, published 2025) are IC50 values, retold here.

The structures appear in SMILES notation. Like-named read-outs stand apart in the source and are kept apart here. Where a SMILES comes first, the peptide text is derived from it. Bridges are numbered along the chain shown (N, C = ends). [ ]: non-standard residue; d: D form. The star is where a group is joined. ξ: configuration not given here. Phe(3-CF3) = N[C@@H](Cc1cccc(C(F)(F)F)c1)C(=O)O; Ala(morpholin-4-yl) = N[C@@H](CN1CCOCC1)C(=O)O; Phe(4-COOH) = N[C@@H](Cc1ccc(C(=O)O)cc1)C(=O)O; Bip = N[C@@H](Cc1ccc(-c2ccccc2)cc1)C(=O)O; Phe(3-F) = N[C@@H](Cc1cccc(F)c1)C(=O)O; Phe(3-Me) = Cc1cccc(C[C@H](N)C(=O)O)c1; ξW = NC(Cc1c[nH]c2ccccc12)C(=O)O; 3Pal = N[C@@H](Cc1cccnc1)C(=O)O; 4Pal = N[C@@H](Cc1ccncc1)C(=O)O; Cha = N[C@@H](CC1CCCCC1)C(=O)O; Cit = NC(=O)NCCC[C@H](N)C(=O)O; Carboxymethyl = O=C(O)C*; Orn = NCCC[C@H](N)C(=O)O; Dab = NCC[C@H](N)C(=O)O; Dap = NC[C@H](N)C(=O)O; Propargyl = C#CC*

The experiment concerns the target T1, human PD-1 / PD-L1-Ig binding on Jurkat cell line over-expressing human PD-1 (Jurkat-PD-1) (Homo sapiens, UniProt Q15116).
T1 construct: expressed in transfected cells; host or cells: Jurkat
The experiment is described as follows: Jurkat-PD-1 Cell Binding High-Content Screening Assay (CBA). The following applies: PE-labeled PD-L1-Ig 20 nM final. The format is cell-based. An outline of the steps:
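Cell-bound PE-labeled PD-L1-Ig (20 nM final, 1 h) measured by high-content imaging after fixation and Hoechst 33342 counterstain. Compound was applied first for 2 h at 37° C. to Jurkat cells over-expressing human PD-1 in DMEM with 10% FCS.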

Where [1] appears, read: Jurkat-PD-1 cells, read-out: Jurkat HPD1_PDL1 IC50.

T1 sequence (Q15116 25-288): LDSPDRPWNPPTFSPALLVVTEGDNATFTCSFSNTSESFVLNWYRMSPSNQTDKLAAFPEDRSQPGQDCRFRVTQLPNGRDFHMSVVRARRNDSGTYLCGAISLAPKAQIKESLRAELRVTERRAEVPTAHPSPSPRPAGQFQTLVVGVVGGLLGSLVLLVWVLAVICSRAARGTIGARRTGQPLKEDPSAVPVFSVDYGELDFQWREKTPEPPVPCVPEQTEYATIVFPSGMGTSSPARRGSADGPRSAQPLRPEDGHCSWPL

In the case of `CC[C@H](C)[C@@H]1NC(=O)[C@H](Cc2ccc(-c3ccccc3)cc2)NC(=O)[C@H](C(C)C)NC(=O)[C@H](Cc2c[nH]c3ccccc23)NC(=O)[C@H](CC(=O)O)NC(=O)[C@H](Cc2ccc(C(=O)O)cc2)NC(=O)[C@H](Cc2ccc(OCC(=O)O)cc2)NC(=O)CSC[C@@H](C(=O)N[C@@H](C)C(N)=O)NC(=O)[C@H]([C@@H](C)O)NC(=O)[C@H](C(C)C)NC(=O)[C@H](Cc2ccc(O)cc2)NC(=O)[C@H](CCN)NC(=O)[C@@H](CC(C)C)NC(=O)[C@H](CCCN)NC1=O` [Compound 1679] ({CH2CO}-Y(Carboxymethyl)[Phe(4-COOH)]DWV[Bip]I[Orn][dL][Dab]YVTCA-NH2; thioether N-14), the IC50 under setting [1] worked out at 92.2 nM.
On the same count and under the same terms, with `Cc1cccc(C[C@@H]2NC(=O)[C@H](CC(=O)O)NC(=O)[C@H](Cc3ccc(OCC(=O)O)cc3)NC(=O)[C@H](CN)NC(=O)CSC[C@@H](C(=O)N[C@@H](CCN)C(N)=O)NC(=O)[C@H](CCCN)NC(=O)[C@H](C(C)C)NC(=O)[C@H](CC3CCCCC3)NC(=O)[C@H](Cc3cccnc3)NC(=O)[C@@H](CC(C)C)NC(=O)[C@H](CCCN)NC(=O)[C@H](Cc3ccc(O)cc3)NC(=O)[C@H](Cc3ccc(-c4ccccc4)cc3)NC(=O)[C@H](Cc3ccc(O)cc3)NC2=O)c1` [Compound 2037] ({CH2CO}-[Dap]Y(Carboxymethyl)D[Phe(3-Me)]Y[Bip]Y[Orn][dL][3Pal][Cha]V[Orn]C[Dab]-NH2; thioether N-14) the figure was 89.7 nM; with `C#CCOc1ccc(C[C@@H]2NC(=O)[C@H](C(C)C)NC(=O)[C@H](CC3CCCCC3)NC(=O)[C@H](CCN)NC(=O)[C@@H](CC(C)C)NC(=O)[C@H](CCCN)NC(=O)[C@H](Cc3ccc(OCC(=O)O)cc3)NC(=O)[C@H](Cc3ccc(-c4ccccc4)cc3)NC(=O)[C@H](Cc3ccc(OCC(=O)O)cc3)NC(=O)[C@H](Cc3cccc(C)c3)NC(=O)[C@H](CC(=O)O)NC(=O)[C@H](Cc3ccc(OCC(=O)O)cc3)NC(=O)[C@H](Cc3cnc[nH]3)NC(=O)CSC[C@@H](C(=O)N[C@@H](CCN)C(N)=O)NC2=O)cc1` [Compound 1813] ({CH2CO}-HY(Carboxymethyl)D[Phe(3-Me)]Y(Carboxymethyl)[Bip]Y(Carboxymethyl)[Orn][dL][Dab][Cha]VY(Propargyl)C[Dab]-NH2; thioether N-14), 0.7 nM.
Still for that read-out and setting: in the case of `CC(C)C[C@@H]1NC(=O)C(Cc2c[nH]c3ccccc23)NC(=O)[C@H](CC(=O)O)NC(=O)[C@H](Cc2ccc(O)cc2)NC(=O)[C@H](Cc2ccccc2)NC(=O)CSC[C@@H](C(=O)N[C@@H](C)C(N)=O)NC(=O)[C@H]([C@@H](C)O)NC(=O)[C@H](C(C)C)NC(=O)[C@H](CC(C)C)NC(=O)[C@H](CC(N)=O)NC(=O)[C@@H](CC(C)C)NC(=O)[C@H](CN)NC(=O)[C@H](C(C)C)NC(=O)[C@H](Cc2ccc(-c3ccccc3)cc2)NC1=O` (stereo partly drawn) [Compound 1213] ({CH2CO}-FYD[ξW]L[Bip]V[Dap][dL]NLVTCA-NH2; thioether N-14) it was 20.8 nM.
Same read-out and setting: with `Cc1cccc(C[C@@H]2NC(=O)[C@H](CC(=O)O)NC(=O)[C@H](Cc3ccc(O)cc3)NC(=O)[C@H](CC(N)=O)NC(=O)CSC[C@@H](C(=O)N[C@@H](C)C(N)=O)NC(=O)[C@H]([C@@H](C)O)NC(=O)[C@H](C(C)C)NC(=O)[C@H](CC3CCCCC3)NC(=O)[C@H](CCN)NC(=O)[C@@H](Cc3ccccc3)NC(=O)[C@H](CCCN)NC(=O)[C@H](CCC(=O)O)NC(=O)[C@H](Cc3ccc(-c4ccccc4)cc3)NC(=O)[C@H](C(C)C)NC2=O)c1` [Compound 1431] ({CH2CO}-NYD[Phe(3-Me)]V[Bip]E[Orn][dF][Dab][Cha]VTCA-NH2; thioether N-14) the figure was 11.6 nM; with `CC[C@H](C)[C@@H]1NC(=O)[C@H](Cc2ccc(-c3ccccc3)cc2)NC(=O)[C@H](C(C)C)NC(=O)[C@H](Cc2c[nH]c3ccccc23)NC(=O)[C@H](CC(=O)O)NC(=O)[C@H](Cc2ccc(O)cc2)NC(=O)[C@H](CC(N)=O)NC(=O)CSC[C@@H](C(=O)N[C@@H](C)C(N)=O)NC(=O)[C@H]([C@@H](C)O)NC(=O)[C@H](C(C)C)NC(=O)[C@H](CC(C)C)NC(=O)[C@H](CCN)NC(=O)[C@@H](CC(C)C)NC(=O)[C@H](CCCCN)NC1=O` [Compound 1039] ({CH2CO}-NYDWV[Bip]IK[dL][Dab]LVTCA-NH2; thioether N-14), 12.1 nM; with `CC(C)C[C@H]1NC(=O)[C@H](CCCN)NC(=O)[C@H](C(C)C)NC(=O)[C@H](Cc2ccc(-c3ccccc3)cc2)NC(=O)[C@H](C(C)C)NC(=O)[C@H](Cc2c[nH]c3ccccc23)NC(=O)[C@H](CC(=O)O)NC(=O)[C@H](Cc2ccc(OCC(=O)O)cc2)NC(=O)[C@H](Cc2ccncc2)NC(=O)CSC[C@@H](C(=O)N[C@@H](C)C(N)=O)NC(=O)[C@H](C(C)O)NC(=O)[C@H](C(C)C)NC(=O)[C@H](CC2CCCCC2)NC(=O)[C@H](CCN)NC1=O` (some centres unmarked) [Compound 2522], 6.9 nM.
Compound `CC[C@H](C)[C@@H]1NC(=O)[C@H](Cc2ccc(-c3ccccc3)cc2)NC(=O)[C@H](C(C)C)NC(=O)[C@H](Cc2c[nH]c3ccccc23)NC(=O)[C@H](CC(=O)O)NC(=O)[C@H](Cc2ccncc2)NC(=O)[C@H](Cc2ccc(OCC(=O)O)cc2)NC(=O)CSC[C@@H](C(=O)N[C@@H](C)C(N)=O)NC(=O)[C@H]([C@@H](C)O)NC(=O)[C@H](C(C)C)NC(=O)[C@H](CC2CCCCC2)NC(=O)[C@H](Cc2c[nH]cn2)NC(=O)[C@@H](CC(C)C)NC(=O)[C@H](CCCN)NC1=O` [Compound 1604] returned an IC50 (Jurkat HPD1_PDL1 IC50, Jurkat-PD-1 cells) of 45.8 nM.
Turning to `CC[C@H](C)[C@@H]1NC(=O)[C@H](Cc2ccc(-c3ccccc3)cc2)NC(=O)[C@H](C(C)C)NC(=O)[C@H](Cc2c[nH]c3ccccc23)NC(=O)[C@H](CC(=O)O)NC(=O)[C@H](Cc2ccc(OCC(=O)O)cc2)NC(=O)[C@H](CN)NC(=O)CSC[C@@H](C(=O)N[C@@H](C)C(N)=O)NC(=O)[C@H]([C@@H](C)O)NC(=O)[C@H](C(C)C)NC(=O)[C@H](Cc2cccc(F)c2)NC(=O)[C@H](CCN)NC(=O)[C@@H](CC(C)C)NC(=O)[C@H](CCCN)NC1=O` [Compound 1669] ({CH2CO}-[Dap]Y(Carboxymethyl)DWV[Bip]I[Orn][dL][Dab][Phe(3-F)]VTCA-NH2; thioether N-14), the IC50 under setting [1] came to 23.5 nM.
As for `CC(C)C[C@H]1NC(=O)[C@H](CCCN)NC(=O)[C@H](Cc2ccc(C(=O)O)cc2)NC(=O)[C@H](Cc2ccc(-c3ccccc3)cc2)NC(=O)[C@H](Cc2ccc(C(=O)O)cc2)NC(=O)[C@H](Cc2cccc(C(F)(F)F)c2)NC(=O)[C@H](CC(N)=O)NC(=O)[C@H](Cc2ccc(C(=O)O)cc2)NC(=O)[C@H](CN2CCOCC2)NC(=O)CSC[C@@H](C(=O)N[C@@H](CCN)C(N)=O)NC(=O)[C@H](CCC(=O)O)NC(=O)[C@H](C(C)C)NC(=O)[C@H](CC2CCCCC2)NC(=O)[C@H](CCN)NC1=O` [Example 2722] ({CH2CO}-[Ala(morpholin-4-yl)][Phe(4-COOH)]N[Phe(3-CF3)][Phe(4-COOH)][Bip][Phe(4-COOH)][Orn][dL][Dab][Cha]VEC[Dab]-NH2; thioether N-14), the half-inhibitory concentration (IC50) under setting [1] turned out to be 105 nM.
Still for that read-out and setting: in the case of `CC(C)C[C@@H]1NC(=O)[C@H](CCN)NC(=O)[C@@H](CC(C)C)NC(=O)[C@H](CCN)NC(=O)[C@H](CCCNC(N)=O)NC(=O)[C@H](Cc2ccc(-c3ccccc3)cc2)NC(=O)[C@H](C(C)C)NC(=O)[C@H](Cc2c[nH]c3ccccc23)NC(=O)[C@H](CC(=O)O)NC(=O)[C@H](Cc2ccc(O)cc2)NC(=O)[C@H](CC(N)=O)NC(=O)CSC[C@@H](C(=O)N[C@@H](C)C(N)=O)NC(=O)[C@H](CO)NC(=O)[C@H](C(C)C)NC1=O` [Compound 1111] ({CH2CO}-NYDWV[Bip][Cit][Dab][dL][Dab]LVSCA-NH2; thioether N-14) it was 37.9 nM.
The same measure, in the same setting: with `CC(C)C[C@@H]1NC(=O)[C@H](CCCCN)NC(=O)[C@@H](CC(C)C)NC(=O)[C@H](CCCN)NC(=O)[C@H](C(C)C)NC(=O)[C@H](Cc2ccc(-c3ccccc3)cc2)NC(=O)[C@H](C(C)C)NC(=O)[C@H](Cc2c[nH]c3ccccc23)NC(=O)[C@H](CC(=O)O)NC(=O)[C@H](Cc2ccc(O)cc2)NC(=O)[C@H](CC(N)=O)NC(=O)CSC[C@@H](C(=O)N[C@@H](C)C(N)=O)NC(=O)[C@H](CO)NC(=O)[C@H](C(C)C)NC1=O` [Compound 1132] ({CH2CO}-NYDWV[Bip]V[Orn][dL]KLVSCA-NH2; thioether N-14) the figure was 20.7 nM; with `CC(C)C[C@@H]1NC(=O)[C@H](CCN)NC(=O)[C@@H](CC(C)C)NC(=O)[C@H](CCCN)NC(=O)[C@H](CCC(=O)O)NC(=O)[C@H](Cc2ccc(-c3ccccc3)cc2)NC(=O)[C@H](C(C)C)NC(=O)[C@H](Cc2c[nH]c3ccccc23)NC(=O)[C@H](CC(=O)O)NC(=O)[C@H](Cc2ccc(O)cc2)NC(=O)[C@H](CC(N)=O)NC(=O)CSC[C@@H](C(=O)N[C@@H](C)C(N)=O)NC(=O)[C@H]([C@@H](C)O)NC(=O)[C@H](C(C)C)NC1=O` [Compound 1016] ({CH2CO}-NYDWV[Bip]E[Orn][dL][Dab]LVTCA-NH2; thioether N-14), 31.9 nM; with `CC[C@H](C)[C@@H]1NC(=O)[C@H](Cc2ccc(-c3ccccc3)cc2)NC(=O)[C@H](C(C)C)NC(=O)[C@H](Cc2c[nH]c3ccccc23)NC(=O)[C@H](CC(=O)O)NC(=O)[C@H](Cc2ccc(OCC(=O)O)cc2)NC(=O)[C@H](Cc2ccncc2)NC(=O)CSC[C@@H](C(=O)N[C@@H](C)C(N)=O)NC(=O)[C@H]([C@@H](C)O)NC(=O)[C@H](C(C)C)NC(=O)[C@H](CC(C)C)NC(=O)[C@H](CCN)NC(=O)[C@@H](CC(C)C)NC(=O)[C@H](CCCN)NC1=O` [Compound 1057] ({CH2CO}-[4Pal]Y(Carboxymethyl)DWV[Bip]I[Orn][dL][Dab]LVTCA-NH2; thioether N-14), 129 nM.
